{"source": "paper PMC2362731", "about": "“Phase I study of Carzelesin (U-80,244) given (4-weekly) by intravenous bolus schedule” (British Journal of Cancer, 1999)", "system": "patients with advanced solid tumours", "experiment": "Phase I toxicity of Carzelesin, 4-weekly 10 min IV infusion (NCI-CTC grading)", "type": "in vivo, human", "experimental": "Carzelesin is a cyclopropylpyrroloindole analogue which acts as a DNA-sequence-specific alkylating agent. In this phase I study, Carzelesin was given as a 4-weekly 10 min IV infusion to 51 patients with advanced solid tumours. Patients received a median of two courses (range 1–5) at one of nine dose levels: 24, 48, 96, 130, 150, 170, 210, 250 and 300 μg m^−2. According to NCI-CTC criteria, non-haematological toxicities (grade 1/2) included fever, nausea and vomiting, mucositis and anorexia, none of which was clearly dose related. The dose-limiting toxicity was haematological and consisted mainly of neutropenia and to a lesser extent thrombocytopenia. From the dose level 150 μg m^−2, the haematological toxicity (particularly thrombocytopenia) was delayed in onset, prolonged and cumulative in some patients. In several courses, double WBC nadirs occurred. The maximum tolerated dose for a single course was 300 μg m^−2. From the dose level 170 μg m^−2, the intended dose intensity could not be delivered to most patients receiving > 2 courses owing to cumulative haematological toxicity. The dose level with the best dose intensity for multiple courses was 150 μg m^−2. The pharmacokinetics of Carzelesin and its metabolites (U-76,073; U-76,074) have been established in 31 patients during the first course of treatment using a HPLC method. […] The concentration of U-76,074 (active metabolite) extended above the lower limit of quantitation (1 ng ml^−1) for short periods of time and only at the higher dose levels. There was no relationship between neutropenia and the AUC of the prodrug Carzelesin, but the presence of detectable plasma levels of the active metabolite U-76,074 was usually associated with a substantial decrease in ANC values. © 1999 Cancer Research Campaign\nCarzelesin (U-80,244, Figure 1A) is a cyclopropylpyrroloindole (CPI) prodrug analogue of CC-1065. […] CPI drugs are a class of compounds with unique DNA interactive properties. These agents fit into the minor groove region of DNA, and the CPI function in the molecule mediates a covalent binding to the N3 position of adenine in A-T rich regions, thus forming DNA adducts in a sequence selective fashion (Hurley et al, 1984; Reynolds et al, 1985). Three new CPIs have now been developed. […] Bizelesin differs from the classical CPI drugs in that it contains two chloromethyl functions, which are both converted (via intramolecular rearrangements) to the CPI alkyl- ating species that interact with DNA. Consequently, this agent is capable of forming DNA interstrand cross-links (Lee et al, 1991). […] Therefore, efforts were directed to modu- late the alkylation rate by the preparation of CPI prodrugs that would require chemical or enzymatic conversion. The activation of Carzelesin is a two-step reaction with hydrolysis of the phenyl- urethane substituent to form the intermediate compound U-76,073, followed by ring closure to form the active product U-76,074 (Figure 1B). […] This higher efficacy may be related to the pharmacologic features of the compound. […] Phase I study of Carzelesin (U-80,244) given (4-weekly) by intravenous bolus schedule A Awada1, CJA Punt2, MJ Piccart1, O Van Tellingen3, L Van Manen2, J Kerger1, Y Groot4, J Wanders4, J Verweij5 and DJTh Wagener2 1Institut Jules Bordet, Bd de Waterloo 125, 1000 Brussels, Belgium; 2University Hospital, Geert Grooteplein 8, Box 9101, 6500 HB Nijmegen, The Netherlands; 3The Netherlands Cancer Institute (Antoni van Leeuwenhoek Huis), Plesmanlaan 121, 1066 CX Amsterdam, The Netherlands; 4European Organization for Research and Treatment of Cancer - New Drug Development Office, PO Box 7057, Amsterdam, The Netherlands; 5Rotterdam Cancer Institute, Groene Hilledijk 301, 3075 EA Rotterdam, The Netherlands; on behalf of the EORTC Early Clinical Studies Group and EORTC NDDO Summary Carzelesin is a cyclopropylpyrroloindole analogue which acts as a DNA-sequence-specific alkylating agent. […]", "key": {"[1]": {"conditions": "Table 4, dose levels 150-300 μg m-2 combined, 31 evaluable patients"}}}
{"smiles": "CCN(CC)c1ccc2cc(C(=O)Nc3ccc4[nH]c(C(=O)N5C[C@@H](CCl)c6c5cc(OC(=O)Nc5ccccc5)c5[nH]cc(C)c65)cc4c3)oc2c1", "note": "[Carzelesin]", "values": [{"measurement": "Thrombocytopenia grade 3/4, patients following the first course", "setting": "Table 3, dose level 210 μg m-2, one patient had pre-existing grade 1 thrombocytopenia", "result": "0/1"}, {"measurement": "Neutropenia grade 3/4, No. of courses", "setting": "Table 3, dose level 250 μg m-2", "result": "1/2"}, {"measurement": "Neutropenia grade 3/4, No. of patients (worst grade per patient)", "setting": "Table 3, dose level 250 μg m-2", "result": "0/2"}, {"measurement": "Neutropenia grade 3/4, patients following the first course", "setting": "Table 3, dose level 250 μg m-2", "result": "1/1"}, {"measurement": "No. of toxic patients following the first course", "setting": "Table 3, dose level 250 μg m-2", "result": 2}, {"measurement": "Thrombocytopenia grade 3/4, No. of courses", "setting": "Table 3, dose level 250 μg m-2", "result": "1/1"}, {"measurement": "Thrombocytopenia grade 3/4, No. of patients (worst grade per patient)", "setting": "Table 3, dose level 250 μg m-2", "result": "1/1"}, {"measurement": "Thrombocytopenia grade 3/4, patients following the first course", "setting": "Table 3, dose level 250 μg m-2", "result": "1/0"}, {"measurement": "No. of toxic patients/courses (grade 3/4 neutropenia and/or thrombocytopenia)", "setting": "Table 3, dose level 250 μg m-2, 5/7 evaluable patients/courses", "result": "2/3"}, {"measurement": "Neutropenia grade 3/4, No. of courses", "setting": "Table 3, dose level 300 μg m-2", "result": "1/2"}, {"measurement": "Neutropenia grade 3/4, No. of patients (worst grade per patient)", "setting": "Table 3, dose level 300 μg m-2", "result": "1/2"}, {"measurement": "Neutropenia grade 3/4, patients following the first course", "setting": "Table 3, dose level 300 μg m-2", "result": "1/2"}, {"measurement": "No. of toxic patients following the first course", "setting": "Table 3, dose level 300 μg m-2", "result": 3}, {"measurement": "Thrombocytopenia grade 3/4, No. of courses", "setting": "Table 3, dose level 300 μg m-2", "result": "1/1"}, {"measurement": "Thrombocytopenia grade 3/4, No. of patients (worst grade per patient)", "setting": "Table 3, dose level 300 μg m-2", "result": "1/1"}, {"measurement": "Thrombocytopenia grade 3/4, patients following the first course", "setting": "Table 3, dose level 300 μg m-2", "result": "1/1"}, {"measurement": "No. of toxic patients/courses (grade 3/4 neutropenia and/or thrombocytopenia)", "setting": "Table 3, dose level 300 μg m-2, 4/4 evaluable patients/courses", "result": "3/3"}, {"measurement": "Anorexia, patients with worst CTC-grade 1", "setting": "[1]", "result": 5}, {"measurement": "Anorexia, patients with worst CTC-grade 2", "setting": "[1]", "result": 5}, {"measurement": "Anorexia, patients with worst CTC-grade 3", "setting": "[1]", "result": 0}, {"measurement": "Anorexia, patients with worst CTC-grade 4", "setting": "[1]", "result": 0}, {"measurement": "Bilirubin toxicity, patients with worst CTC-grade 2", "setting": "[1]", "result": 6}, {"measurement": "Bilirubin toxicity, patients with worst CTC-grade 3", "setting": "[1]", "result": 1}, {"measurement": "Bilirubin toxicity, patients with worst CTC-grade 4", "setting": "[1]", "result": 0}, {"measurement": "Creatinine toxicity, patients with worst CTC-grade 1", "setting": "[1]", "result": 6}, {"measurement": "Creatinine toxicity, patients with worst CTC-grade 2", "setting": "[1]", "result": 1}, {"measurement": "Creatinine toxicity, patients with worst CTC-grade 3", "setting": "[1]", "result": 0}, {"measurement": "Creatinine toxicity, patients with worst CTC-grade 4", "setting": "[1]", "result": 0}, {"measurement": "Diarrhoea, patients with worst CTC-grade 1", "setting": "[1]", "result": 5}, {"measurement": "Diarrhoea, patients with worst CTC-grade 2", "setting": "[1]", "result": 1}, {"measurement": "Diarrhoea, patients with worst CTC-grade 3", "setting": "[1]", "result": 0}, {"measurement": "Fatigue/asthenia, patients with worst CTC-grade 1", "setting": "[1]", "result": 3}, {"measurement": "Fatigue/asthenia, patients with worst CTC-grade 2", "setting": "[1]", "result": 9}, {"measurement": "Fatigue/asthenia, patients with worst CTC-grade 3", "setting": "[1]", "result": 3}, {"measurement": "Fatigue/asthenia, patients with worst CTC-grade 4", "setting": "[1]", "result": 0}, {"measurement": "Fever, patients with worst CTC-grade 1", "setting": "[1]", "result": 4}, {"measurement": "Fever, patients with worst CTC-grade 2", "setting": "[1]", "result": 5}, {"measurement": "Fever, patients with worst CTC-grade 3", "setting": "[1]", "result": 2}, {"measurement": "Fever, patients with worst CTC-grade 4", "setting": "[1]", "result": 0}, {"measurement": "Mucositis, patients with worst CTC-grade 1", "setting": "[1]", "result": 7}, {"measurement": "Mucositis, patients with worst CTC-grade 2", "setting": "[1]", "result": 1}, {"measurement": "Mucositis, patients with worst CTC-grade 3", "setting": "[1]", "result": 0}, {"measurement": "Mucositis, patients with worst CTC-grade 4", "setting": "[1]", "result": 0}, {"measurement": "Nausea, patients with worst CTC-grade 1", "setting": "[1]", "result": 11}, {"measurement": "Nausea, patients with worst CTC-grade 2", "setting": "[1]", "result": 6}, {"measurement": "Nausea, patients with worst CTC-grade 3", "setting": "[1]", "result": 2}, {"measurement": "Nausea, patients with worst CTC-grade 4", "setting": "[1]", "result": 0}, {"measurement": "Pain at the infusion site, patients with worst CTC-grade 1", "setting": "[1]", "result": 9}, {"measurement": "Pain at the infusion site, patients with worst CTC-grade 2", "setting": "[1]", "result": 2}, {"measurement": "Pain at the infusion site, patients with worst CTC-grade 3", "setting": "[1]", "result": 0}, {"measurement": "Pain at the infusion site, patients with worst CTC-grade 4", "setting": "[1]", "result": 0}, {"measurement": "Proteinuria, patients with worst CTC-grade 1", "setting": "[1]", "result": 3}, {"measurement": "Proteinuria, patients with worst CTC-grade 2", "setting": "[1]", "result": 0}, {"measurement": "Proteinuria, patients with worst CTC-grade 3", "setting": "[1]", "result": 0}, {"measurement": "Proteinuria, patients with worst CTC-grade 4", "setting": "[1]", "result": 0}, {"measurement": "Vomiting, patients with worst CTC-grade 1", "setting": "[1]", "result": 7}, {"measurement": "Vomiting, patients with worst CTC-grade 2", "setting": "[1]", "result": 5}, {"measurement": "Vomiting, patients with worst CTC-grade 3", "setting": "[1]", "result": 2}, {"measurement": "Vomiting, patients with worst CTC-grade 4", "setting": "[1]", "result": 0}, {"measurement": "Diarrhoea, patients with worst CTC-grade 4", "setting": "Table 4, dose levels 150-300 μg m-2 combined, 31 evaluable patients, relation to Carzelesin was unlikely", "result": 1}, {"measurement": "patients who received red cell transfusions while on study", "setting": "different dose levels from 130", "result": "Nine patients"}, {"measurement": "patients with grade 4 myelotoxicity", "setting": "dose level 150, six evaluable patients", "result": "two patients out of six"}, {"measurement": "episode of febrile neutropenia", "setting": "dose level 250", "result": "One patient"}, {"measurement": "patients with grade 4 neutropenia", "setting": "dose level 300", "result": "two out of four"}, {"measurement": "patients with grade 4 myelotoxicity", "setting": "dose levels 96 and 130", "result": "two patients"}, {"measurement": "grade 3 or 4 haematological toxicities", "setting": "first two dose levels (24, 48)", "result": "no grade 3 or 4 haematological toxici- ties were observed"}, {"measurement": "second drop in leucocyte and neutrophil count after apparent recovery, evaluable courses", "setting": "from the dose level of 130", "result": 26, "unit": "%"}, {"measurement": "second drop in leucocyte and neutrophil count after apparent recovery, evaluable patients", "setting": "from the dose level of 130", "result": 33, "unit": "%"}, {"measurement": "non-haematological toxicities, overall", "setting": "grade 1-2, none clearly dose related", "result": "infrequent and mild"}, {"measurement": "flush reaction, patients", "setting": "in vivo", "result": "five patients"}, {"measurement": "haemorrhagic episodes during treatment", "setting": "in vivo", "result": "No haemorrhagic episodes"}, {"measurement": "dose-limiting toxicity", "setting": "mainly neutropenia, to a lesser extent thrombocytopenia", "result": "haematological"}, {"measurement": "median days to complete recovery, neutrophils", "setting": "overall, median (range)", "result": "28 (20-35) days"}, {"measurement": "median days to complete recovery, platelets", "setting": "overall, median (range)", "result": "33 (24-56) days"}, {"measurement": "median days to nadir, neutrophils", "setting": "overall, median (range)", "result": "12 (8-14) days"}, {"measurement": "median days to nadir, platelets", "setting": "overall, median (range)", "result": "20 (15-26) days"}]}
